From ChEMBL document CHEMBL5214986, “Discovery of selective covalent cathepsin K inhibitors containing novel 4-cyanopyrimidine warhead based on quantum chemical calculations and binding mode analysis” (Bioorg Med Chem, 2022)
Activity calls are given as the source filed them. No cut-off for these calls is given here.

How the values were obtained:
[1] = biological target: T1, Cathepsin K (Homo sapiens, UniProt P43235); test: Inhibition of Cathepsin K (unknown origin) assessed as inhibition of AFC release using sequence LR labelled with AFC as substrate by fluorescence based analysis
T1 sequence (P43235 whole entry): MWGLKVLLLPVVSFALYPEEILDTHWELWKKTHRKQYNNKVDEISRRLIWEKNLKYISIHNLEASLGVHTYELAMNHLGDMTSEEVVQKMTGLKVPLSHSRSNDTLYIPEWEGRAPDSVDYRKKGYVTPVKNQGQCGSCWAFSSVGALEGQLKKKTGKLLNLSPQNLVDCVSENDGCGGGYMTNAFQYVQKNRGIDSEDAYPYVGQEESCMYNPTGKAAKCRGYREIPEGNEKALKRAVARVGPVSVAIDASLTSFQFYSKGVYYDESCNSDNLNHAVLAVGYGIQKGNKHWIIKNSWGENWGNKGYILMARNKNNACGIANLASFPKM

[2] = biological target: T2, Cathepsin K (Homo sapiens) (UniProt P43235); test: Inhibition of Cathepsin K (unknown origin) assessed as inhibition of AFC release at 1 uM using sequence LR labelled with AFC as substrate by fluorescence based analysis
T2 sequence (whole entry): T1 sequence (P43235 whole entry)

[3] = biological target: T2, Cathepsin K (Homo sapiens); test: Inhibition of Cathepsin K (unknown origin) assessed as inhibition of AFC release at 10 uM using sequence LR labelled with AFC as substrate by fluorescence based analysis
[4] = biological target: Cathepsin S (Homo sapiens, UniProt P25774); test: Inhibition of Cathepsin S (unknown origin) assessed as inhibition of AFC release using sequence VVR labelled with AFC as substrate by fluorescence based analysis
[5] = biological target: Cathepsin B (Homo sapiens, UniProt P07858); test: Inhibition of Cathepsin B (unknown origin) assessed as inhibition of AFC release using sequence RR labelled with AFC as substrate by fluorescence based analysis
[6] = biological target: Cathepsin (S and K) (Homo sapiens) (UniProt P25774+P43235); test: Selectivity index, ratio of IC50 for Cathepsin S (unknown origin) to IC50 for Cathepsin K (unknown origin) by fluorescence based analysis; assay type: protein assay
[7] = biological target: Cathepsin (B and K) (Homo sapiens) (UniProt P43235+P07858); test: Selectivity index, ratio of IC50 for Cathepsin B (unknown origin) to IC50 for Cathepsin K (unknown origin) by fluorescence based analysis; assay type: protein assay
[8] = biological target: T2, Cathepsin K (Homo sapiens); test: Reversible inhibition of Cathepsin K (unknown origin) assessed as inhibition of AFC release using sequence LR labelled with AFC as substrate preincubated with enzyme for 10 to 60 mins followed by substrate addition by fluorescence based analysis

Cathepsin S, sequence (P25774 whole entry): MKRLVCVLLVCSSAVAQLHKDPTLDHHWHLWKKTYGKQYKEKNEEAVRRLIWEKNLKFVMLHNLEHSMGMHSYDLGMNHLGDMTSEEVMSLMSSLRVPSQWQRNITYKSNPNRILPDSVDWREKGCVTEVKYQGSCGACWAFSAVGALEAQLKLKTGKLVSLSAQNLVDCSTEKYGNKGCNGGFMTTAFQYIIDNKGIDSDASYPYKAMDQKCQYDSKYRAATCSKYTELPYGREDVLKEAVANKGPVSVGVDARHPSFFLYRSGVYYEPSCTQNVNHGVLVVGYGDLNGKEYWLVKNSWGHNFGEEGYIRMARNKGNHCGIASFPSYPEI
Cathepsin (S and K) (Homo sapiens), sequence (P25774 whole entry, looked up, one chain of several): as the sequence (P25774 whole entry) above

| IC50 [1] [nM] | inhibition [2] [%] | inhibition [3] [%] | IC50 [4] [nM] | IC50 [5] [nM] | Ratio IC50 [6] | Ratio IC50 [7] | inhibition [8] | Compound |
| --- | --- | --- | --- | --- | --- | --- | --- | --- |
| 235 | 77.5 | 83.3 | > 500000 | > 500000 |  |  |  | CC(C)(C)CN(Cc1ccc(-c2ccccc2)cc1)c1nccc(C#N)n1 |
|  | 33.6 | 45.5 |  |  |  |  |  | CC(C)(C)CN(Cc1cccc(-c2ccccc2)c1)c1nccc(C#N)n1 |
| 974 | 79.8 | 91.3 |  |  |  |  |  | CC(C)(C)CN(Cc1ccc(Br)cc1)c1nccc(C#N)n1 |
|  | 43.9 | 75.8 |  |  |  |  |  | CC(C)(C)CN(Cc1cc(Br)cs1)c1nccc(C#N)n1 |
| 1.7 | 96.5 | 100 | < 500 | < 2000 | < 300 | < 1180 |  | CC(C)(F)C[C@H](N[C@@H](c1ccc(-c2ccc(S(C)(=O)=O)cc2)cc1)C(F)(F)F)C(=O)NC1(C#N)CC1 [ODANACATIB] |
|  | -1.05 | 82.7 |  |  |  |  |  | CC(C)(C)CN(Cc1ccccc1)c1nccc(C#N)n1 |
|  | 48 | 93.4 |  |  |  |  |  | CC(C)(C)CN(Cc1ccc2cccnc2c1)c1nccc(C#N)n1 |
|  | 61.3 | 88.3 |  |  |  |  |  | CC(C)(C)CN(Cc1ccc(Cl)cc1)c1nccc(C#N)n1 |
|  | 46.9 | 87.4 |  |  |  |  |  | CC(C)(C)CN(Cc1ccc2ccccc2n1)c1nccc(C#N)n1 |
|  | 47.4 | 73.2 |  |  |  |  |  | N#Cc1ccnc(N(Cc2ccc(Br)cc2)CC2CCCCC2)n1 |
|  | 52.6 | 93.7 |  |  |  |  |  | Cc1ncc(CN(CC(C)(C)C)c2nccc(C#N)n2)s1 |
| 61.9 | 96.7 | 99.1 | > 50000 | > 100000 | > 810 | > 1620 | Active | CN1CCN(c2ccc(CN(CC(C)(C)C)c3nccc(C#N)n3)cc2)CC1 |
|  | 56.2 | 90.6 |  |  |  |  |  | CC(C)(C)CN(Cc1ccc(F)cc1)c1nccc(C#N)n1 |
|  |  | 32.2 |  |  |  |  |  | CC(C)(C)CN(Cc1ccc(Br)cn1)c1nccc(C#N)n1 |
|  | 16.8 | 42.8 |  |  |  |  |  | N#Cc1ccnc(N(Cc2ccc(Br)cc2)C2CCCCC2)n1 |
| 356 | 86.5 | 89.7 | > 500000 | > 500000 |  |  |  | CC(C)(C)CN(Cc1ccc2ccccc2c1)c1nccc(C#N)n1 |
